A short description of assay [1]: Luminescence Cell-Based Dose Confirmation HTS to Identify Activators of 5'UTR Stem-Loop Driven Alpha-Synuclein mRNA Translation in H4 Neuroglioblastoma Cells. [Related pubchem assays: 1829 (Project Summary), 1814 (Primary HTS)]. Type of assay: functional.
A short description of assay [2]: Luminescence Cell-Based Dose Response HTS to Identify Activators of Luciferase Translation or Activity in H4 […] Cells. [Related pubchem assays: 1829 (Project Summary), 1814 (Primary HTS)]. Type of assay: functional.
Another assay relates to H4. As to the kind of experiment: Luminescence Cell-Based Dose Response HTS to Identify Activators of 5'UTR Stem-Loop Driven Prion Protein mRNA Translation in H4 Neuroglioblastoma Cells. [Related pubchem assays: 1829 (Project Summary), 1814 (Primary HTS)]. To be noted: Homo sapiens. Type of assay: functional.
For the next assay, the target named is Transthyretin (Homo sapiens, UniProt P02766). The experiment in a line: Luminescence-based cell-based high throughput dose response assay to identify activators of Transthyretin (TTR) transcription. Type of assay: functional.
A short description of assay [3]: microbe, parasite or virus in culture. Type of assay: functional. To be noted: Mycobacterium tuberculosis.
Assay [4] is described as follows: cells. To be noted: A549.
A short description of assay [5]: cells. To be noted: HEK293.
Assay [6] concerns the target Protein disulfide-isomerase (Homo sapiens, UniProt P07237). As to the kind of experiment: PDI inhibitors, insulin turbidity readout, confirmation, biochemical, dry powder samples, set 2 (AID 652146).
A further assay addresses Paired box protein Pax-8 (Homo sapiens, UniProt Q06710). As to the kind of experiment: inhibitors of PAX8-driven TPO luciferase reporter, dose response, RMG-I cells, cherry-pick (AID 687027).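 Also: luciferase reporter driven by Pax8 target thyroperoxidase promoter measured by SteadyGlo luminescence.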 Type of assay: functional, cell-based.
The nature of assay [7]: IOSE-T80 ovarian epithelial cell cytotoxicity, dose response, cytotoxicity control for PAX8 inhibitor project, plate reader, dry powder samples (AID 743045). Type of assay: functional, cell-based.
Assay [8] is described as follows: A2780 ovarian cancer cell cytotoxicity, dose response, cytotoxicity control, plate reader, dry powder samples (AID 743046). Type of assay: functional, cell-based.
Assay [9] is described as follows: NIH:OVCAR-3 ovarian cancer cell cytotoxicity, dose response, PAX8 inhibitor project, plate reader, dry powder samples (AID 743044). Type of assay: functional, cell-based.
A short description of assay [10]: IGROV1 ovarian cancer cell cytotoxicity, dose response, PAX8 inhibitor project, plate reader, dry powder samples (AID 743043). Type of assay: functional, cell-based. To be noted: IGROV-1.
A short description of assay [11]: cytotoxicity in OVCAR8 ovarian cancer cells, dose response, PAX8 project, cell-based, plate reader, dry powder samples (AID 743197). Type of assay: functional. To be noted: OVCAR-8.
Another assay concerns HEK293. As to the kind of experiment: HEK293T cell cytotoxicity, dose response, cytotoxicity control, ATP luminescence, cherry-pick samples (AID 687005).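 Also: cells exposed to compound for 48 hours.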 Type of assay: functional, cell-based. To be noted: Homo sapiens.
Assay [12] is described as follows: HEK293 Cytotoxicity Assay Measured in Cell-Based System Using Plate Reader - 7071-01_Inhibitor_Dose_CherryPick_Activity_Set2. Type of assay: functional.
The nature of assay [13]: MITF Orthogonal Assay: SK-MEL-5 CTG Assay Measured in Cell-Based System Using Plate Reader - 2084-02_Inhibitor_Dose_DryPowder_Activity_Set7. Type of assay: functional.
Assay [14] in a line: MITF: Counter assay: A375 proliferation Measured in Cell-Based System Using Plate Reader - 2084-03_Inhibitor_Dose_DryPowder_Activity_Set8. To be noted: A-375. Type of assay: functional.
A short description of assay [15]: TRPM1 promoter luciferase reporter signal decrease, dose response, MITF inhibitor project, cell-based, SK-MEL-5, dry powder, set 8 (AID 624430). Type of assay: functional. Background: A reporter such as luciferase makes a cellular process visible.
The nature of assay [16]: HEK293 cell cytotoxicity, dose response, cytotoxicity control, ATP luminescence, dry powder, Set6 (AID 743142). Type of assay: functional, cell-based.
Assay [17] is described as follows: A549 cell cytotoxicity, dose response, cytotoxicity control, CellTiter-Glo luminescence, dry powder, set 3 (AID 743146). Type of assay: functional, cell-based. (Cellular ATP, detected with luciferase, serves as a proxy for viable cell number.)
Assay [18] concerns the target Metabotropic glutamate receptor 5 (Rattus norvegicus, UniProt P31424). The experiment in a line: Identification of a glycine sulfonamide based non-MPEP site positive allosteric potentiator (PAM) of mGlu5 (calcium_assay). Type of assay: functional.
Another assay concerns the target Fatty acid synthase (Homo sapiens, UniProt P49327). As to the kind of experiment: FAS thioesterase domain inhibitors, SAR follow-up, biochemical, endpoint fluorescence intensity, powder samples (AID 652164). Type of assay: functional.
Assay [19] has as its target Induced myeloid leukemia cell differentiation protein Mcl-1 (Homo sapiens, UniProt Q07820). Type of assay: functional.
Assay [20] addresses T1, Mannose-6-phosphate isomerase (Homo sapiens, UniProt P34949).
T1 sequence (P34949 whole entry): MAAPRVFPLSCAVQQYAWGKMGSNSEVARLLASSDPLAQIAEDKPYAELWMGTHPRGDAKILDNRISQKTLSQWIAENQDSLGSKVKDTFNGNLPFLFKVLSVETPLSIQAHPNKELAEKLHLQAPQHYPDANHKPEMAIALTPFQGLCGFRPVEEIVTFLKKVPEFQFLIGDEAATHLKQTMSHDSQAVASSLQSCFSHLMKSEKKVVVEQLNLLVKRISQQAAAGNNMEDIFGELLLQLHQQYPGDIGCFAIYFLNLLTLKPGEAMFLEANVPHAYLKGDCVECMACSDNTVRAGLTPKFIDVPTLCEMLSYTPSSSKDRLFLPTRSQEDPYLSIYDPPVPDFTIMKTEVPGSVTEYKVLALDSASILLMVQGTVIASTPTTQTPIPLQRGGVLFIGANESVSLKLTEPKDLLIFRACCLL
The experiment in a line: human PMI inhibitors, high substrate, primary screen, biochemical, fluorescence intensity, high mannose 6-phosphate (AID 1220).

Another assay concerns the target Genome polyprotein (dengue virus type 2, UniProt P29990). As to the kind of experiment: Dengue-2 NS5 methyltransferase inhibitors, primary screen, biochemical, confirmation dose response (AID 588689). Type of assay: functional.
Assay [21] deals with T2, Histone-lysine N-methyltransferase NSD2 (Homo sapiens, UniProt O96028).
T2 sequence (O96028 whole entry): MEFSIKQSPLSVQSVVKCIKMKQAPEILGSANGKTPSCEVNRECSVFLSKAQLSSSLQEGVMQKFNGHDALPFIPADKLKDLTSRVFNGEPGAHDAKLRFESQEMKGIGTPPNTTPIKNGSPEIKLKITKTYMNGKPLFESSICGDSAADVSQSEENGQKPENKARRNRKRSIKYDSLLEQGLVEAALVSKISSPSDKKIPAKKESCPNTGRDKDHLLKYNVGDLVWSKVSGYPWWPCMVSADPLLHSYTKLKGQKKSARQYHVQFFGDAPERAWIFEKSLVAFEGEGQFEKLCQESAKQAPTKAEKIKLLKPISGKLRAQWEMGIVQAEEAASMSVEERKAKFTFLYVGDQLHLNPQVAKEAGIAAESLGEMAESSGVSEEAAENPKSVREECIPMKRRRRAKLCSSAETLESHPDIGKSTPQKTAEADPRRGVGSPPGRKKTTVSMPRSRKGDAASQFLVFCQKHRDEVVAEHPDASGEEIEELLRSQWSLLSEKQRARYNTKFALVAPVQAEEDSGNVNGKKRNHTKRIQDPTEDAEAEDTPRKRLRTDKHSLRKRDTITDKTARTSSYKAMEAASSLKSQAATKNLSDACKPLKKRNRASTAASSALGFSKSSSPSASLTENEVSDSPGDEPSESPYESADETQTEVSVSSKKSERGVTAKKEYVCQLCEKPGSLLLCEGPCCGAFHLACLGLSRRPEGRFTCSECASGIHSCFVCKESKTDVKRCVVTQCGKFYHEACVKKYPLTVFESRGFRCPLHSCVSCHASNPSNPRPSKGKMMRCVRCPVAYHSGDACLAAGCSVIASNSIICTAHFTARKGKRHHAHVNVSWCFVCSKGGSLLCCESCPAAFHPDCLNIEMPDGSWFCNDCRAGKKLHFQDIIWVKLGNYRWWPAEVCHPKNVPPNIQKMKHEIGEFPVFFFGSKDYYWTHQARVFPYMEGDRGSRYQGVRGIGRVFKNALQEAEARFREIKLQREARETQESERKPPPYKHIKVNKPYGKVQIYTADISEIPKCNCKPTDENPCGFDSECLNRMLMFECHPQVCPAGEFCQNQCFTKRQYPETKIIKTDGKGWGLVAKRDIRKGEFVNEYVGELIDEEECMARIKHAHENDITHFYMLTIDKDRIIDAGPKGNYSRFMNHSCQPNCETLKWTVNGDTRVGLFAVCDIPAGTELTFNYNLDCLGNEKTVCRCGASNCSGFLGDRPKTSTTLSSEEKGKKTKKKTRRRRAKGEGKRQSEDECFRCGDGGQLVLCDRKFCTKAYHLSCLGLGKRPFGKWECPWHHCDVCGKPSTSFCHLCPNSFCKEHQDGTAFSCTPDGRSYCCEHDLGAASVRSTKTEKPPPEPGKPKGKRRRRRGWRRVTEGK
Type of assay: biochemical.

In assay [22] the target is RNA-editing ligase 1, mitochondrial (Trypanosoma brucei brucei, UniProt P86926). The experiment in a line: TbREL1 ligase inhibitors, dose response, biochemical, fluorescence, Trypanosoma brucei (AID 1117295). Type of assay: functional.
Assay [23] in a line: cells. To be noted: HEK293. The source holds these as a separate data set.

18 molecules from ChEMBL document CHEMBL1201862, “PubChem BioAssay data set” (2004) can be followed below.

Active and inactive are the calls of the source.

Chain of Fatty acid synthase (P49327 whole entry, the tested form may be a part): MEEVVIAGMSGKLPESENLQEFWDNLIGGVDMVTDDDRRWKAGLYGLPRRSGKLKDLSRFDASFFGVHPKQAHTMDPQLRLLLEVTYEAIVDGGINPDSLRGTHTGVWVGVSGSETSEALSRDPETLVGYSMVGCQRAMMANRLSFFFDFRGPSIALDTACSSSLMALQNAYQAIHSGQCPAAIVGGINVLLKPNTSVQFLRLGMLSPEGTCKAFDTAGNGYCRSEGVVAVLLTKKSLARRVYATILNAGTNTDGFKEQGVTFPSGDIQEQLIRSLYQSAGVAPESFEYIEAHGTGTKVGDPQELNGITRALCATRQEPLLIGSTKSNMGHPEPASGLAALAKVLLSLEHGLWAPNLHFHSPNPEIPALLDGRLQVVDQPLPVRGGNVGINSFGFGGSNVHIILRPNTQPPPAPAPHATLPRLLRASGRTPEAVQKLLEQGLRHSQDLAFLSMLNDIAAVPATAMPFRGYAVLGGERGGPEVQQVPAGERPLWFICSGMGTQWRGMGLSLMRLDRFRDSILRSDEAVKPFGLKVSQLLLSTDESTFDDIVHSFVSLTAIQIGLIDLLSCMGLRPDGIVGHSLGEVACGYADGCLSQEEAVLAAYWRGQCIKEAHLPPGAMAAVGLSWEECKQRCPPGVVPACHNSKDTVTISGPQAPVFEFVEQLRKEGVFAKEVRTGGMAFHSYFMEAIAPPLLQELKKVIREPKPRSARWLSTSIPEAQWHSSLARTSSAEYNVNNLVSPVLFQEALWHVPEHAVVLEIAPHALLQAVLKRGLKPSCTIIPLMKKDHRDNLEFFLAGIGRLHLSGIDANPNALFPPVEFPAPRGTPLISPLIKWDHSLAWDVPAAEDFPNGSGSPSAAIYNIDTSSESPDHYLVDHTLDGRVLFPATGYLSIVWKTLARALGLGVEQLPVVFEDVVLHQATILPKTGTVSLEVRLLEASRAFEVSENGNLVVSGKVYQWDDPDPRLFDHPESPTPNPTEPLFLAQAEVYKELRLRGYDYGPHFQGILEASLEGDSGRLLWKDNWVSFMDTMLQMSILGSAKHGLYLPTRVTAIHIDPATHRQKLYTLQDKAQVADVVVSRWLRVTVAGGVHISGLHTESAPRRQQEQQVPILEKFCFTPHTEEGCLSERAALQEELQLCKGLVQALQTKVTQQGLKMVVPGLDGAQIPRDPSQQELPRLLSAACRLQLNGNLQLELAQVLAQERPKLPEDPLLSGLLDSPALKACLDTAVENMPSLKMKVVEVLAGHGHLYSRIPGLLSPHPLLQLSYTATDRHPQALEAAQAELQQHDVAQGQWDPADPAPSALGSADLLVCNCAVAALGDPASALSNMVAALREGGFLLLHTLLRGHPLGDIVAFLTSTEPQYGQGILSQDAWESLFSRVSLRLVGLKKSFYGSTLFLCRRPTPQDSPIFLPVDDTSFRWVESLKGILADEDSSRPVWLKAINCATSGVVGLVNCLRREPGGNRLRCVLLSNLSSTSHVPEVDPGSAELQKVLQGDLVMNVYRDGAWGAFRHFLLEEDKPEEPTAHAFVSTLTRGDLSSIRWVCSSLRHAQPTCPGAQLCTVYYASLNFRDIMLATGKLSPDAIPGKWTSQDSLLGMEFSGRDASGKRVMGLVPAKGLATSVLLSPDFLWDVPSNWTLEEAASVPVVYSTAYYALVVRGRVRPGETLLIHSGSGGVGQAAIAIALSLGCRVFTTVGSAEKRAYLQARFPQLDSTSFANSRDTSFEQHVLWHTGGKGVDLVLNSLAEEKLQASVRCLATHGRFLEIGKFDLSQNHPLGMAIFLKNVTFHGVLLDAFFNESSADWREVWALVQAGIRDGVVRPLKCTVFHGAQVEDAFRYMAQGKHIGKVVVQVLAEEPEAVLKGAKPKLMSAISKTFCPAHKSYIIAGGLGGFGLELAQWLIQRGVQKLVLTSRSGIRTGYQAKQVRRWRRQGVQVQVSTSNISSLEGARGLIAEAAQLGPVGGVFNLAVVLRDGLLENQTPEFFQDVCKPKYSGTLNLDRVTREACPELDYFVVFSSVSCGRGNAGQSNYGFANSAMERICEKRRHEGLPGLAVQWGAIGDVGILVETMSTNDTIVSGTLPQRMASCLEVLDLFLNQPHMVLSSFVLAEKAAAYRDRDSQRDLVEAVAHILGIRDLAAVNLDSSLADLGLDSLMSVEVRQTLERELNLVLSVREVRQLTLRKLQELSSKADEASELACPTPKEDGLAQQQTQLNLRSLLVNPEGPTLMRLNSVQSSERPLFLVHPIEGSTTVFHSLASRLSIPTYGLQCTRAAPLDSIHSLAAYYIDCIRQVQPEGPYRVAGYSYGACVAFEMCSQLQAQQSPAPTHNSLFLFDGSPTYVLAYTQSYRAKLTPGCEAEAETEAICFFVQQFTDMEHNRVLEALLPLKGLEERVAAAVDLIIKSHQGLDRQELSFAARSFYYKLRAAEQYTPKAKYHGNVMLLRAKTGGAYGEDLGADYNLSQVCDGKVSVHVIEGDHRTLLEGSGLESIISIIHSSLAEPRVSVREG
Chain of Metabotropic glutamate receptor 5 (P31424 whole entry, the tested form may be a part): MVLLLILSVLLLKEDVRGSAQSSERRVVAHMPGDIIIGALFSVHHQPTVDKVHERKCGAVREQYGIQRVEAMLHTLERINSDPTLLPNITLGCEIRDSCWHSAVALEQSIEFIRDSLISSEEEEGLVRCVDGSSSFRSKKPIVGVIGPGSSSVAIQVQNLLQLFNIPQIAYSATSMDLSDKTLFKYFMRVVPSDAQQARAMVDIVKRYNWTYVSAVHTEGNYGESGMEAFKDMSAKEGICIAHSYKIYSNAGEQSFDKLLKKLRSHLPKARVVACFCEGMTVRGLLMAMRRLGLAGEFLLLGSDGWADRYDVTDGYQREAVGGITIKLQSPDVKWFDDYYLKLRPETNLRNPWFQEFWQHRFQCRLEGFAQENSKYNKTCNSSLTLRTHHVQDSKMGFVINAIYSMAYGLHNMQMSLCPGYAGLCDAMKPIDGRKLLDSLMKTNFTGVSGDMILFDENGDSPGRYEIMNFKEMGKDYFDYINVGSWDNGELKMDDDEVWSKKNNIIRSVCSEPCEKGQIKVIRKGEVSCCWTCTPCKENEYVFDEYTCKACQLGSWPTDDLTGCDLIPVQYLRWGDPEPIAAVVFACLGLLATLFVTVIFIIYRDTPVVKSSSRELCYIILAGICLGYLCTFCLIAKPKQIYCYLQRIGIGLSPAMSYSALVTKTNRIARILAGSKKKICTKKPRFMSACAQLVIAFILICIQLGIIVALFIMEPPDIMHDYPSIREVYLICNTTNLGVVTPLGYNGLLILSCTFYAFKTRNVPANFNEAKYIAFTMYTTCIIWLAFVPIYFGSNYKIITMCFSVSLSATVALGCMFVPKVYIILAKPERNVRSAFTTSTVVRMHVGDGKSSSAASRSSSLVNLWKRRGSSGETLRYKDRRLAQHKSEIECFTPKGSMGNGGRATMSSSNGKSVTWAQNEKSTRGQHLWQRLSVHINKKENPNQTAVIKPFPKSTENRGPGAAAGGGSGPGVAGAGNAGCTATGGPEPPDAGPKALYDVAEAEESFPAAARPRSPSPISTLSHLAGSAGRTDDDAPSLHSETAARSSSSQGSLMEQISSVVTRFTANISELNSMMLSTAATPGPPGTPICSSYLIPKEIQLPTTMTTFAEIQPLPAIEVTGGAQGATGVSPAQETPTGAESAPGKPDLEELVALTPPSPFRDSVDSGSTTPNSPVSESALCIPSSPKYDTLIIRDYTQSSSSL
Chain of Paired box protein Pax-8 (Q06710 whole entry): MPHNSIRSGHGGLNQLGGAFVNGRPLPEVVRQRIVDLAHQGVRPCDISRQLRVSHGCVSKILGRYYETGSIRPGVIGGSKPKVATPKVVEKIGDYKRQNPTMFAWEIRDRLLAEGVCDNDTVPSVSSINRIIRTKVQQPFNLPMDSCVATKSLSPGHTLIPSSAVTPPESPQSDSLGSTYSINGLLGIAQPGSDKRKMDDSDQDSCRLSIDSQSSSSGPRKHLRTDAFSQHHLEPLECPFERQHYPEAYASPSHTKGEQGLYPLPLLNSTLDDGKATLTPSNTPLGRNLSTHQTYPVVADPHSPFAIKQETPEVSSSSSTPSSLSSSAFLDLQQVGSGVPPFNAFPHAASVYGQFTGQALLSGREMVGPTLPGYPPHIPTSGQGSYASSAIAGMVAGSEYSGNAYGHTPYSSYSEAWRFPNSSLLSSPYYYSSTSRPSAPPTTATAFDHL
Chain of Protein disulfide-isomerase (P07237 whole entry): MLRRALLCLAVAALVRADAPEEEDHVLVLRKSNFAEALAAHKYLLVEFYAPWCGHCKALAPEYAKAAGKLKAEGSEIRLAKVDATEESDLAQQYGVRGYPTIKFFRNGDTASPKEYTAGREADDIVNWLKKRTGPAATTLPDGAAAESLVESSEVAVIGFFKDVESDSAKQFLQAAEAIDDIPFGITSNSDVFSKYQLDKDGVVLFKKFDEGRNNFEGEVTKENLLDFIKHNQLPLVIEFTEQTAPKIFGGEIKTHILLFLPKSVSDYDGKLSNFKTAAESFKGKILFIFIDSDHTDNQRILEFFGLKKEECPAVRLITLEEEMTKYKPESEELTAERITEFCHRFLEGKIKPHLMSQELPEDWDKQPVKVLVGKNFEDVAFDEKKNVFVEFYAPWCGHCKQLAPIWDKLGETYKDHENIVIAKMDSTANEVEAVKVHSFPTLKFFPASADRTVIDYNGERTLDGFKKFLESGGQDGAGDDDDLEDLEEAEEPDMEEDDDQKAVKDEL
Chain of Induced myeloid leukemia cell differentiation protein Mcl-1 (Q07820 whole entry): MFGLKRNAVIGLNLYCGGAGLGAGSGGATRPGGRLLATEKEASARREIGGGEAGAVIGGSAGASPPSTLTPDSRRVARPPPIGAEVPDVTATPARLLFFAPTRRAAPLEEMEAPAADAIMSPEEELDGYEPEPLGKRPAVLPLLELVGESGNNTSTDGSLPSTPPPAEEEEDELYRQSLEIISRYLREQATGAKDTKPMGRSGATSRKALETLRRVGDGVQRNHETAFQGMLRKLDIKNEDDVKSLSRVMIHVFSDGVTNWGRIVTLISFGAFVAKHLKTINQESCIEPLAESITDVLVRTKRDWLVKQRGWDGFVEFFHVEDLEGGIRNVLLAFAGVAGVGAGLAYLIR

For `c1ccc(Sc2ncnc3c2oc2ccccc23)nc1`, the EC50 (in general, the concentration giving half of the maximal effect) is 4.69 µM (active) in [1], 26.6 µM (active) in assay [2], 90.1 µM (active) with H4 and > 167 µM (inactive) on Transthyretin.

Regarding `N=c1oc2cc(O)ccc2cc1C(=O)Nc1ccc(Br)cc1`, the CC50 in assay [3] is 23.7 µM (active). Moreover, the AC50 in the assay “cells [4]” and in “cells [5]” was > 52 µM (inactive) throughout.

For `CCOC(=O)C1(CCOc2ccccc2)CCN(Cc2ccc(OC)cc2)CC1`, the AC50 (as a rule, the concentration at which the activity in the assay is half-maximal) in [6] is > 30 µM (inactive).

As to `Cc1c(C(=O)NCc2cccc([N+](=O)[O-])c2)sc(=O)n1Cc1cccc(F)c1`, the AC50 in the assay “cells [4]” is 48.4 µM (active).

On to `C[C@@H]1CCCCO[C@@H](CN(C)CC2CCCCC2)[C@H](C)CN([C@H](C)CO)C(=O)c2cc(NS(=O)(=O)c3ccc(Cl)cc3)ccc2O1`, for which the AC50 on Paired box protein Pax-8 was 5.5 µM (active); in assay [7], 41.4 µM (active); in assay [8] it was 20.4 µM (active); in [9], 23.4 µM (active); in assay [10], 33.5 µM (active); in assay [11], 25.6 µM (active).

As for `O=C(C[C@@H]1CC[C@H]2[C@@H](COC[C@@H](O)CN2Cc2ccc(Cl)cc2)O1)NCc1cccc(F)c1`, the AC50 (in the assay on HEK293; in assay [12]) was 21.4 µM (active) each time.

With `CCS(=O)(=O)NCC[C@H]1CC[C@H](NS(=O)(=O)c2cccc(F)c2)[C@H](CO)O1`, the AC50 (with HEK293; in [12]) was 33.5 µM (active) throughout.

On to `COc1ccc(S(=O)(=O)Nc2ccc3c(c2)C(=O)N([C@H](C)CO)C[C@H](C)[C@@H](CN(C)S(=O)(=O)c2ccc(C)cc2)OCCCC[C@H](C)O3)cc1`, for which the AC50 on Paired box protein Pax-8 is 6.27 µM (active); in assay [7] it was 9.47 µM (active); in [8] it was 44 µM (active); in assay [9], 11.8 µM (active); in assay [10], 33.5 µM (active); in assay [11] it was 14.8 µM (active).

`O=C1C(Nc2ccccc2)=CC(=O)c2ncccc21`: the AC50 is 195 nM (active) in assay [13], 16.2 µM (active) in assay [14] and 413 nM (active) in assay [15].

As to `CCOC(=O)C1CCN(C(=O)OC(C)(C)C)CC1`, the AC50 in assay [6] is > 30 µM (inactive).

Consider `N#Cc1ccc(C(=O)NCCC(=O)N[C@@H]2CCCc3ccccc32)cc1`, for which the AC50 in [16] was 17.1 µM (active); in assay [17], > 52 µM (inactive).

Consider `CS(=O)(=O)N(CC(=O)Nc1cccnc1F)c1ccccc1Cl`, for which the EC50 in [18] was 1690 nM.

With `CN(C(=O)CN(c1ccccc1Cl)S(C)(=O)=O)c1ccccc1`, the EC50 in assay [18] is 10000 nM (inconclusive).

Regarding `CCC(=O)Nc1nc(-c2ccc(S(=O)(=O)N(C)C)cc2)cs1`, the IC50 (commonly the concentration needed to halve the response being measured) at Fatty acid synthase was 1.08 µM (active).

Consider `O=C(CCNC(=O)c1ccc2c(c1)OC(F)(F)O2)N[C@@H]1CCCc2ccccc21`, for which the AC50 in assay [16] was 7.51 µM (active); in assay [17], > 52 µM (inactive).

As to `CCN(CC)S(=O)(=O)c1ccc(-c2csc(NC(=O)C3CCCC3)n2)cc1`, the IC50 at Fatty acid synthase was 1.18 µM (active).

For `O=C(Cc1csc(N2CCOCC2)n1)N/N=C/c1ccc(O)c(O)c1O`, the IC50 in [19] is 3.52 µM (active); in [20], 8.94 µM (active); at Genome polyprotein, > 100 µM (active); in assay [22], > 96.6 µM (inactive). Moreover, in [21], the AC50 is > 20 µM (inactive).

For `CSc1nc2ccccc2n1CCOc1ccccc1`, in “cells [23]”, the AC50 is > 52 µM (inactive).
